Test results taken from patent US20220257626A1, “TREATMENT COMPRISING SGLT INHIBITORS” (Novartis AG, priority 2019, published 2022).

Columns and labels:
Format in all cases: in vivo, human
[1] = Placebo-controlled, randomized Phase 2a study in patients with NASH (CLIK066X2204, NCT03205150), interim analysis; conditions: for patients reporting diarrhea (most common adverse event): 12 weeks, placebo 38.9%
Description: Method: Patients with histologically confirmed NASH (F1-F3) or phenotypic NASH (BMI≥27 kg/m^2 in non-Asians or ≥23 kg/m^2 in Asians, ALT≥50 (males) or ≥35 (females) and type 2 diabetes (T2DM)) received daily oral licogliflozin at 150 mg, 30 mg or placebo in a 2:2:1 ratio for 12 weeks (NCT03205150). The primary endpoint is the effect on ALT level after 12 weeks of treatment. Secondary endpoints include improvement in body weight, liver fat content and AST, amongst others. The study size is 110 of which 77 have completed (placebo (n=18); licogliflozin 30 mg (n=25) and licogliflozin 150 mg (n=34)) and are included in the interim analysis.

[2] = Randomized, double-blind, placebo controlled dose finding study in Japanese patients with obesity disease
Description: This study was a randomized, double-blind, placebo controlled, dose finding study to evaluate the effect of licogliflozin (2.5, 10, 25 and 50 mg qd) in 126 Japanese patients with obesity disease. The primary objective was to examine the dose-response relationship of licogliflozin treatment in body weight reduction relative to placebo at 12 weeks. The secondary objectives included assessment of responder rates, change in parameters related to complications, visceral and subcutaneous fat area, and safety through 12 weeks of treatment.

[3] = Phase 2 dose range finding study in obese patients (CLIK066B2201); conditions: 30 mg QD; expected
Description: A dose of 30 mg QD is expected to achieve approximately 70% of maximum observed efficacy (using weight loss as a downstream marker for efficacy; CLIK066B2201). Licogliflozin is currently being tested as 30 mg and 150 mg QD monotherapy in NASH (CLIK066X2204). […] To minimize the risk of GI adverse effects of the SGLT1 inhibition in the gut such as diarrhea, licogliflozin will administered in the evening.

ketoacidosis ([2]; 2.5, 10, 25 and 50 mg qd, 12 weeks): no ketoacidosis
SMILES: CCc1ccc([C@@H]2O[C@H](CO)[C@@H](O)[C@H](O)[C@H]2O)cc1Cc1ccc2c(c1)OCCO2 [licogliflozin, (2S,3R,4R,5S,6R)-2-(3-((2,3-dihydrobenzo[b][1,4]dioxin-6-yl)methyl)-4-ethylphenyl)-6-(hydroxymethyl)tetrahydro-2H-pyran-3,4,5-triol]
patients reporting diarrhea (most common adverse event) ([1]; 30 mg): 40%
reduction of ALT and liver fat (interim analysis) ([1]; 150 mg QD treatment group): promising reduction
incidence of gastrointestinal events (mainly diarrhea) ([1]; 150 mg QD treatment group, interim analysis): significant incidence
patients reporting diarrhea (most common adverse event) ([1]; 150 mg): 76.5%
safety and tolerability ([2]; 2.5, 10, 25 and 50 mg qd over 12 weeks): safe and well tolerated
patients who achieved reduction of ≥3% in body weight ([2]; 10, 25 and 50 mg qd dose groups, placebo 7.1%, p≤0.002 for all): ≥ 50%
share of maximum observed efficacy (weight loss as downstream marker) [3]: approximately 70%
